Reference: patent publication US20040086949A1, “Method for preparing a ligand presenting assembly (LPA), an LPA and uses thereof” (Statens Serum Institut, priority 1998, published 2004)
Ends that are not written are not given here.

Experiments:
[1] = test system: IgM antibodies in sera from patients with neuroborreliosis; assay: Indirect IgM-ELISA with LPA-I or biotinylated-pepC10 as coated antigen; assay type: binding, human; conditions: NB sera (n = 97), sera diluted 1/200, 98% specific cut-off
Description: The capability of LPA-I according to the present invention to react with sera from patients with neuroborreliosis was evaluated against that of an ELISA based on biotinylated-pepC10, wherein pepC10 is identical to the amino acid sequence of Seq. ID 1.
Preparing plates for the LPA-I-ELISA: Microtiter plates (Maxisorb; Nunc, Roskilde, Denmark) were coated overnight at 4° C. with 0.6 μg/ml of LPA-I diluted in 0.05 M bicarbonate pH 9.6, blocked with 3% (w/v) milk powder in phosphate-buffered saline (PBS) for 1 h, and reacted with sera diluted 1/200 in 1% (w/v) milk powder in PBS containing 0.05% Tween 20 (PBST) and 0.7 M NaCl for 2 h. The secondary antibody was a peroxidase conjugated rabbit anti-human IgM (Dako, Denmark, codes P-215) diluted 1/1000 in 1% (w/v) milk powder in PBST. After 1 h of incubation, bound secondary antibody was quantitated by colouring with o-phenylenediamine and H2O2 in citrate buffer (Sigma, St. Louis, Mo.) for 30 min. Optical density (OD) at 492 nm was determined in a plate reader (EAR 400 AC-SLT, Labinstruments, Austria). Plates were washed extensively with PBST-0.5M NaCl between each incubation step. The 98% specific diagnostic cut-off level was OD of 0.270 for IgM detection.
Preparing plates for the biotinylated-pepC10-ELISA: ELISAs with biotinylated-pepC10, were performed essentially as described above for LPA-I, except that microtiter plates were first coated with streptavidin (2.5 μg/ml) (Zymed, S. Avidinii) in citrate buffer (pH 5) overnight at 4° C., and then incubated with biotinylated pepC10 (0.1 μg/ml) in 1% (w/v) milk powder in PBST-0.37 M NaCl overnight at 4° C.
(i) Sera from 97 Danish patients with neuroborreliosis (NB). All patients had been hospitalised in 1994 ([…] between 4 and 80 years of age; median age, 49). The selection was based on a positive test for B. burgdorferi specific intrathecal antibody synthesis. The diagnosis was further corroborated by the presence of lymphocytic pleocytosis in CSF (median cell count, 124/μl) and one of the following manifestations: lymphocytic meningoradiculitis with typical painful radiculitis, mononeuritis multiplex (Bannwarth's syndrome), radiculomyelitis, monosymptomatic fascialis paresis (all children), subacute lymphocytic meningitis, and chronic progressive encephalomyelitis. Of the 100 patients, 48 recalled a previous EM-like skin lesion. Disease duration, defined as the time from onset of neurological symptoms until diagnostic blood and CSF samples were taken, ranged from 1 week to 26 weeks (median duration, 3 weeks).
Sera from 80 healthy controls were used for determination of the 98%-specific cut-off level in ELISAs.

[2] = test system: C-terminal B-cell epitope of OspC; assay: Immunogenicity of LPA-VI in mice, serum Ig ELISA against recombinant OspC and LPA-I; assay type: in vivo; conditions: five female C57 black mice, 5 μg i.p. on days 0 and 14 with Al(OH)3 and Freund's incomplete adjuvant, sera diluted 200 fold
Description: The capability of an LPA according to the present invention to induce a humoral immune response was studied by immunising mice with LPA-VI. Five female C57 black mice (age 6 to 8 weeks) were immunised two times intraperitoneally with a 2-week interval and were bled on days 0, 14, and 28. Each immunisation dose contained. 5 μg of LPA-VI dissolved in 0.25 ml 0.9% NaCl and supplemented with 1 mg Al(OH)3 (Superfos Biosector, Denmark) and 0.25 ml Freund's incomplete adjuvant. The serum samples were diluted 200 fold and then tested by ELISA for Ig reactivity against OspC produced on recombinant form (WO 97/42221) and LPA-I (FIG. 8).
FIG. 8. Mean ELISA titer of sera from five mice immunised with LPA-VI on days 0 and 14. The microdilution plates were coated with LPA-I (diamond) or recombinant OspC (Squares), and the sera were analysed in a 200-fold dilution.

Row | Substance | % of IgM reactive sera (frequency of positive Lyme borreliosis sera) [1] [%] | No. of IgM reactive sera [1] | induction of antibodies against the C-terminal B-cell epitope of OspC [2]
1 | FmocN(CH2CO-ProValValAlaGluSerProLysLysPro-OH)2 [LPA-I] | 42.3 | 41 | –
2 | biotinylated-pepC10: biotinylated peptide; pepC10 is identical to the amino acid sequence of Seq. ID 1 (ProValValAlaGluSerProLysLysPro), bound to streptavidin-coated plates (PVVAESPKKP; also: biotinylated, place not given here) [reference compound] | 43.3 | 42 | –
3 | (HO-ProLysLysProSerGluAlaValValPro-COCH2)2N-Lys(AlaSerAlaAlaAlaGluIleGlyAlaPheAsnTrpGlnGlnGluThrMet-H)2 [LPA-VI] | – | – | highly effective in inducing antibodies
